Data reported in PubChem BioAssay (NCI).
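Tested at 5 concentrations; 48 h exposure; 96-well plates; endpoints linearly interpolated, else capped at highest concentration. Abbreviation: GI50, concentration required for 50% inhibition of growth. TGI is the concentration that stops growth completely.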

Key:
Assay in all cases: NCI-60 cell line screen, 48 h
SNB-19 CNS = system: SNB-19 CNS
MOLT-4 leukemia = system: MOLT-4 leukemia
MDA-MB-231 breast = system: MDA-MB-231 breast
BT-549 breast = system: BT-549 breast
SW-620 colon = system: SW-620 colon
CCRF-CEM leukemia = system: CCRF-CEM leukemia
A549 NSCLC = system: A549 NSCLC
U251 CNS = system: U251 CNS
M14 melanoma = system: M14 melanoma
OVCAR-3 ovarian = system: OVCAR-3 ovarian
CAKI-1 renal = system: CAKI-1 renal
HCT-116 colon = system: HCT-116 colon
NCI-H226 lung = system: NCI-H226 lung
OVCAR-4 ovarian = system: OVCAR-4 ovarian
T-47D breast = system: T-47D breast
SNB-75 CNS = system: SNB-75 CNS
NCI-H23 lung = system: NCI-H23 lung
786-0 renal = system: 786-0 renal
IGROV1 ovarian = system: IGROV1 ovarian
SK-OV-3 ovarian = system: SK-OV-3 ovarian
NCI-H522 lung = system: NCI-H522 lung
UACC-257 melanoma = system: UACC-257 melanoma
NCI/ADR-RES ovarian = system: NCI/ADR-RES ovarian
SN12C renal = system: SN12C renal
RPMI-8226 leukemia = system: RPMI-8226 leukemia
UACC-62 melanoma = system: UACC-62 melanoma
UO-31 renal = system: UO-31 renal
RXF 393 renal = system: RXF 393 renal
K-562 leukemia = system: K-562 leukemia
MALME-3M melanoma = system: MALME-3M melanoma
SR leukemia = system: SR leukemia
SK-MEL-28 melanoma = system: SK-MEL-28 melanoma
SK-MEL-2 melanoma = system: SK-MEL-2 melanoma
NCI-H460 lung = system: NCI-H460 lung
SF-268 CNS = system: SF-268 CNS
A498 renal = system: A498 renal
HS 578T breast = system: HS 578T breast
HCT-15 colon = system: HCT-15 colon
OVCAR-5 ovarian = system: OVCAR-5 ovarian
LOX IMVI melanoma = system: LOX IMVI melanoma
MDA-MB-435 = system: MDA-MB-435
KM12 colon = system: KM12 colon
HOP-92 NSCLC = system: HOP-92 NSCLC
OVCAR-8 ovarian = system: OVCAR-8 ovarian
SF-539 CNS = system: SF-539 CNS
SF-295 CNS = system: SF-295 CNS
COLO 205 colon = system: COLO 205 colon
PC-3 prostate = system: PC-3 prostate
HOP-62 NSCLC = system: HOP-62 NSCLC
HCC-2998 colon = system: HCC-2998 colon
DU-145 prostate = system: DU-145 prostate
HL-60(TB) leukemia = system: HL-60(TB) leukemia
HT29 colon = system: HT29 colon
ACHN renal = system: ACHN renal
SK-MEL-5 melanoma = system: SK-MEL-5 melanoma
MCF7 breast = system: MCF7 breast
TK-10 renal = system: TK-10 renal

C=CC(=O)N1CC2(CCC(n3nc(-c4ccc(Oc5ccccc5)cc4)c4c(N)ncnc43)CC2)C1
GI50 (SNB-19 CNS): 1.23 µM | TGI (SNB-19 CNS): 15.7 µM | GI50 (MOLT-4 leukemia): 1.93 µM | TGI (MOLT-4 leukemia): 6.39 µM | GI50 (MDA-MB-231 breast): 0.281 µM | TGI (MDA-MB-231 breast): 11.1 µM | GI50 (BT-549 breast): 0.245 µM | TGI (BT-549 breast): 9.78 µM | GI50 (SW-620 colon): 3.98 µM | TGI (SW-620 colon): 21.7 µM | GI50 (CCRF-CEM leukemia): 3.65 µM | TGI (CCRF-CEM leukemia): 21.9 µM | GI50 (A549 NSCLC): 1.46 µM | TGI (A549 NSCLC): 9.41 µM | GI50 (U251 CNS): 0.617 µM | TGI (U251 CNS): 12.7 µM | GI50 (M14 melanoma): 1.43 µM | TGI (M14 melanoma): 5.23 µM | GI50 (OVCAR-3 ovarian): 0.641 µM | TGI (OVCAR-3 ovarian): 9.61 µM | GI50 (CAKI-1 renal): 0.0283 µM | TGI (CAKI-1 renal): 0.709 µM | GI50 (HCT-116 colon): 0.0407 µM | TGI (HCT-116 colon): 1.88 µM | GI50 (NCI-H226 lung): 0.861 µM | TGI (NCI-H226 lung): 15 µM | GI50 (OVCAR-4 ovarian): 1.46 µM | TGI (OVCAR-4 ovarian): 14.2 µM | GI50 (T-47D breast): 0.0197 µM | TGI (T-47D breast): 5.89 µM | GI50 (SNB-75 CNS): < 0.0151 µM | TGI (SNB-75 CNS): 0.174 µM | GI50 (NCI-H23 lung): 4.39 µM | TGI (NCI-H23 lung): 17.3 µM | GI50 (786-0 renal): 0.0304 µM | TGI (786-0 renal): 1.63 µM | GI50 (IGROV1 ovarian): < 0.0125 µM | TGI (IGROV1 ovarian): 0.462 µM | GI50 (SK-OV-3 ovarian): 0.0525 µM | TGI (SK-OV-3 ovarian): 0.787 µM | GI50 (NCI-H522 lung): 0.0676 µM | TGI (NCI-H522 lung): 0.995 µM | GI50 (UACC-257 melanoma): 1.46 µM | TGI (UACC-257 melanoma): 8.62 µM | GI50 (NCI/ADR-RES ovarian): 1.74 µM | TGI (NCI/ADR-RES ovarian): 17.5 µM | GI50 (SN12C renal): 0.179 µM | TGI (SN12C renal): 10.6 µM | GI50 (RPMI-8226 leukemia): 1.51 µM | TGI (RPMI-8226 leukemia): 5.8 µM | GI50 (UACC-62 melanoma): 1.02 µM | TGI (UACC-62 melanoma): 4.85 µM | GI50 (UO-31 renal): 0.0468 µM | TGI (UO-31 renal): 1.66 µM | GI50 (RXF 393 renal): 0.0168 µM | TGI (RXF 393 renal): 0.267 µM | GI50 (K-562 leukemia): 0.698 µM | TGI (K-562 leukemia): 25.6 µM | GI50 (MALME-3M melanoma): 1.5 µM | TGI (MALME-3M melanoma): 9.21 µM | GI50 (SR leukemia): 3.35 µM | TGI (SR leukemia): 18.9 µM | GI50 (SK-MEL-28 melanoma): 2.45 µM | TGI (SK-MEL-28 melanoma): 14 µM | GI50 (SK-MEL-2 melanoma): 1.5 µM | TGI (SK-MEL-2 melanoma): 3.63 µM | GI50 (NCI-H460 lung): 3.43 µM | TGI (NCI-H460 lung): 16.1 µM | GI50 (SF-268 CNS): 0.255 µM | TGI (SF-268 CNS): 6.04 µM | GI50 (A498 renal): < 0.0223 µM | GI50 (HS 578T breast): 0.108 µM | TGI (HS 578T breast): 1.54 µM | GI50 (HCT-15 colon): 0.2 µM | TGI (HCT-15 colon): 12.1 µM | GI50 (OVCAR-5 ovarian): 0.13 µM | TGI (OVCAR-5 ovarian): 16.6 µM | GI50 (LOX IMVI melanoma): < 0.0106 µM | TGI (LOX IMVI melanoma): 0.847 µM | GI50 (MDA-MB-435): 1.74 µM | TGI (MDA-MB-435): 7.13 µM | GI50 (KM12 colon): 3.02 µM | TGI (KM12 colon): 10.8 µM | GI50 (HOP-92 NSCLC): < 0.014 µM | TGI (HOP-92 NSCLC): 0.366 µM | GI50 (OVCAR-8 ovarian): 1.85 µM | TGI (OVCAR-8 ovarian): 13.1 µM | GI50 (SF-539 CNS): 0.174 µM | TGI (SF-539 CNS): 1.91 µM | GI50 (SF-295 CNS): 2.3 µM | TGI (SF-295 CNS): 15.7 µM | GI50 (COLO 205 colon): 0.143 µM | TGI (COLO 205 colon): 1.28 µM | GI50 (PC-3 prostate): 1.09 µM | TGI (PC-3 prostate): 9.2 µM | GI50 (HOP-62 NSCLC): 0.0103 µM | TGI (HOP-62 NSCLC): 6.5 µM | GI50 (HCC-2998 colon): 4.8 µM | TGI (HCC-2998 colon): 19.6 µM | GI50 (DU-145 prostate): 0.368 µM | TGI (DU-145 prostate): 2.21 µM | GI50 (HL-60(TB) leukemia): 3.2 µM | TGI (HL-60(TB) leukemia): 10 µM | GI50 (HT29 colon): < 0.0175 µM | TGI (HT29 colon): 1.34 µM | GI50 (ACHN renal): < 0.0123 µM | TGI (ACHN renal): 0.362 µM | GI50 (SK-MEL-5 melanoma): 1.55 µM | TGI (SK-MEL-5 melanoma): 2.97 µM | GI50 (MCF7 breast): 0.424 µM | TGI (MCF7 breast): 11.4 µM | GI50 (TK-10 renal): 0.0362 µM | TGI (TK-10 renal): 0.266 µM
